Measured values from patent US9259450B2, “Use of a fermented soy extract as a prebiotic composition” (MICROBIO CO., LTD., priority 2010, dated 2016).
≈ marks a conversion by molar mass, not a printed value.

Assays:
[1] = tested on: Lactobacillus strains (L. rhamnosus BCRC 10940, L. paracasei BCRC 14001, L. delbrueckii BCRC 14008); experiment: antimicrobial activity (MIC), microtitre plate-based method; assay type: cell-based; conditions: 10^5 cfu/ml, 37° C., 24 h, MRS medium, triplicate; read-out: minimal inhibitory concentration (MIC)
Method: (§1) Three Lactobacillus strains, L. rhamnosus BCRC 10940, L. paracasei BCRC 14001, L. delbrueckii BCRC 14008, were purchased from the FIRDI, which were cultured in MRS w/o agar medium (Difco) and stored at 4° C. To activate the bacteria, the cells were inoculated in MRS medium at a concentration of 5% (v/v) and cultured at 37° C. for 24 hours, and then 10^7 cells/ml of each of the three Lactobacillus strains was inoculated in 5 ml of MRS medium with shaking overnight.
(§2) Antimicrobial activity of antibiotics against the three Lactobacillus strains was measured by a microtitre plate-based method. […] 10 μl of activated bacterial cultures was added to each well to achieve a concentration of 10^5 cfu/ml per well, and the plates were incubated at 37° C. for 24 h. The growth of the bacteria was measured by absorbance at 600 nm and the survival percentages were determined. Further, the minimal inhibitory concentration (MIC) was determined as the lowest concentration of the antibiotics allowing no visible growth of the bacteria. Data are the averages of a triplicate experiment.

L. paracasei [2] = experiment: microtitre plate-based growth assay, cell number (Table 3); design: species or system L. paracasei BCRC 14001
Method: as §1, §2
(§3) On the other hand, the fermented soy extract prepared of the invention as in Example 1 was analyzed for its prebiotic activity to support the growth of beneficial bacteria using the microtitre plate-based method as described above. The fermented soy extract of the invention was added at a concentration of 5% into the wells and the plates were incubated at 37° C. for 48 h. The cell number was counted.

L. rhamnosus [3] = experiment: as above; design: species or system L. rhamnosus BCRC 10940
Method: as §1, §2, §3

L. delbrueckii [4] = experiment: as above; design: species or system L. delbrueckii BCRC 14008
Method: as §1, §2, §3

L. paracasei [5] = experiment: simultaneous treatment of antibiotics and fermented soy extract, survival counting; assay type: cell-based; conditions: FSE 5% where added, 48 h
Method: as §1
(§4) The plates were incubated at 37° C. for 48 h.

L. delbrueckii [6] = experiment: as above; assay type: cell-based; conditions: FSE 5% where added, 48 h
Method: as §1, §4

L. rhamnosus [7] = experiment: as above; assay type: cell-based; conditions: FSE 5% where added, 48 h
Method: as §1, §4

SMILES | MIC [1] | cell number L. paracasei (L. paracasei [2]; antibiotic 2 μg) | cell number L. rhamnosus (L. rhamnosus [3]; antibiotic 2 μg) | cell number L. delbrueckii (L. delbrueckii [4]; antibiotic 2 μg) | survival counting L. paracasei (L. paracasei [5]; antibiotic 2 μg/ml) | survival counting L. paracasei (L. paracasei [5]; antibiotic 5 μg/ml) | survival counting L. delbrueckii (L. delbrueckii [6]; antibiotic 2 μg/ml) | survival counting L. delbrueckii (L. delbrueckii [6]; antibiotic 5 μg/ml) | survival counting L. rhamnosus (L. rhamnosus [7]; antibiotic 2 μg/ml) | survival counting L. rhamnosus (L. rhamnosus [7]; antibiotic 5 μg/ml) | cell number L. paracasei (L. paracasei [2]; antibiotic 1 μg) | cell number L. rhamnosus (L. rhamnosus [3]; antibiotic 1 μg) | cell number L. delbrueckii (L. delbrueckii [4]; antibiotic 1 μg)
CC1(C)S[C@@H]2[C@H](NC(=O)[C@H](N)c3ccc(O)cc3)C(=O)N2[C@H]1C(=O)O [AMO, amoxicillin] | 3.6 µg/mL (≈ 9.85 µM) | 2.00 × 10^4 | 3.40 × 10^3 | 5.00 × 10^4 | 3000 ± 500 | 4300 ± 445 | 6670 ± 610 | 1170 ± 76 | 500 ± 50 | 370 ± 10 | – | – | –
CC1(C)S[C@@H]2[C@H](NC(=O)[C@H](N)c3ccccc3)C(=O)N2[C@H]1C(=O)O [AMP, ampicillin] | 3.6 µg/mL (≈ 10.3 µM) | 3.29 × 10^6 | 6.30 × 10^4 | 5.58 × 10^6 | 3670 ± 350 | 4700 ± 409 | 4330 ± 260 | – | 967 ± 76 | 230 ± 15 | – | – | –
CC[C@H]1OC(=O)[C@H](C)[C@@H](O[C@H]2C[C@@](C)(OC)[C@@H](O)[C@H](C)O2)[C@H](C)[C@@H](O[C@@H]2O[C@H](C)C[C@H](N(C)C)[C@H]2O)[C@](C)(OC)C[C@@H](C)C(=O)[C@H](C)[C@@H](O)[C@]1(C)O [CAM, clarithromycin] | 1 µg/mL (≈ 1.34 µM) | – | – | – | – | – | – | – | – | – | 3.27 × 10^5 | 5.10 × 10^4 | 3.45 × 10^5
CC[C@H]1OC(=O)[C@H](C)[C@@H](O[C@H]2C[C@@](C)(OC)[C@@H](O)[C@H](C)O2)[C@H](C)[C@@H](O[C@@H]2O[C@H](C)C[C@H](N(C)C)[C@H]2O)[C@](C)(O)C[C@@H](C)C(=O)[C@H](C)[C@@H](O)[C@]1(C)O [Eryc, erythromycin] | 1 µg/mL (≈ 1.36 µM) | 3.18 × 10^5 | 5.07 × 10^4 | 3.16 × 10^5 | – | – | – | – | – | – | – | – | –
